13 compounds from PubChem BioAssay (NCI) can be followed below.

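Test compounds were applied to cells in 96-well plates for 48 hours at 5 doses. Here, GI50 denotes the concentration required for 50% inhibition of growth. At the TGI there is no net growth.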 Some results are limits rather than exact numbers.

Test systems include M14 melanoma; UACC-62 melanoma; OVCAR-3 ovarian; HCC-2998 colon; NCI-H226 lung; HL-60(TB) leukemia; OVCAR-5 ovarian; SK-MEL-5 melanoma; TK-10 renal; HT29 colon.
Experiment in all cases: inhibition of tumour cell growth, NCI panel, 48 h

For the compound `O=c1cc(-c2cccc(Br)c2)[nH]c2cc3c(cc12)OCO3`, the TGI with M14 melanoma was 24.5 µM; in the experiment with UACC-62 melanoma it was 4.83 µM; in the experiment on OVCAR-3 ovarian, 9.5 µM; with HCC-2998 colon, 63 µM; in the experiment with NCI-H226 lung, 37 µM; with HL-60(TB) leukemia, more than 100 µM. Besides, the TGI with OVCAR-5 ovarian was more than 100 µM; with SK-MEL-5 melanoma it was 9.73 µM; in the experiment with TK-10 renal, 28.6 µM; with HT29 colon it was more than 83.3 µM.
As for `CC(=O)Nc1ccc2c3c(cc(O)c2c1)N(C(=O)CCCCCC(=O)Nc1ccc2c4c(cc(O)c2c1)N(C(=O)OC(C)(C)C)CC4CCl)CC3CCl` (stereo not drawn), the TGI in the experiment with M14 melanoma is 20.5 µM; with UACC-62 melanoma, 3.87 µM; with OVCAR-3 ovarian, 4.54 µM; in the experiment with HCC-2998 colon it was 3.69 µM; with NCI-H226 lung it was 9.56 µM; in the experiment with HL-60(TB) leukemia, more than 36.1 µM. The TGI in the experiment with OVCAR-5 ovarian is 35.5 µM; in the experiment on SK-MEL-5 melanoma it was 2.98 µM; in the experiment with TK-10 renal, more than 70.6 µM; with HT29 colon, more than 39.8 µM.
`CC(=O)Nc1nc(C)c(-c2cc3c(c(S(C)(=O)=O)c2)C(=O)N([C@@H](C)C2CC2)C3)s1`: the GI50 with M14 melanoma is 28 µM; in the experiment with UACC-62 melanoma, 34.8 µM; in the experiment with OVCAR-3 ovarian, 30.9 µM; in the experiment on HCC-2998 colon, 46.7 µM; with NCI-H226 lung, 28.7 µM; in the experiment on HL-60(TB) leukemia, 17.5 µM. Moreover, the GI50 in the experiment with OVCAR-5 ovarian was 29.9 µM; with SK-MEL-5 melanoma, 18.8 µM; in the experiment with TK-10 renal, 20.7 µM; in the experiment with HT29 colon, 31 µM. Moreover, the TGI in the experiment on M14 melanoma, in the experiment with UACC-62 melanoma, in the experiment on OVCAR-3 ovarian, with HCC-2998 colon, with NCI-H226 lung and in the experiment with HL-60(TB) leukemia was more than 100 µM in each case. Besides, the TGI in the experiment on OVCAR-5 ovarian is more than 100 µM; in the experiment on SK-MEL-5 melanoma, 39.7 µM; with TK-10 renal it was 75.4 µM; with HT29 colon, more than 100 µM.
For `COc1cc2c(cc1OC)C(=O)N1CCCC1C(=O)S2` (stereo not drawn), the TGI in the experiment with M14 melanoma, in the experiment on UACC-62 melanoma, with OVCAR-3 ovarian, in the experiment on HCC-2998 colon, with HL-60(TB) leukemia and in the experiment with OVCAR-5 ovarian was more than 100 µM each time. For the same compound, the TGI with SK-MEL-5 melanoma and in the experiment on TK-10 renal was more than 100 µM throughout.
`CCO/N=C(/CC)c1ccc(Br)s1`: the TGI with M14 melanoma, with UACC-62 melanoma, in the experiment on OVCAR-3 ovarian, in the experiment with HCC-2998 colon, with NCI-H226 lung and in the experiment with HL-60(TB) leukemia was more than 100 µM throughout. Moreover, the TGI in the experiment with OVCAR-5 ovarian, in the experiment with SK-MEL-5 melanoma, in the experiment on TK-10 renal and in the experiment with HT29 colon was more than 100 µM in each case.
Turning to `Cc1ccc2c(c1)C/C(=C\c1ccccc1C(=O)O)C2=O`, the TGI with UACC-62 melanoma, in the experiment on OVCAR-3 ovarian, with HCC-2998 colon, with NCI-H226 lung, with HL-60(TB) leukemia and in the experiment on OVCAR-5 ovarian was more than 100 µM each time. Besides, the TGI with SK-MEL-5 melanoma, in the experiment with TK-10 renal and with HT29 colon was more than 100 µM each time.
In the case of `Cc1cccc2c(=O)c3c(O)cc4c(c3n(C)c12)C=CC(C)(C)O4`, the TGI with M14 melanoma, with UACC-62 melanoma, with OVCAR-3 ovarian, with HCC-2998 colon, in the experiment on NCI-H226 lung and in the experiment with HL-60(TB) leukemia was more than 100 µM each time. For the same compound, the TGI was more than 100 µM in the experiment on OVCAR-5 ovarian, more than 100 µM in the experiment with SK-MEL-5 melanoma, more than 100 µM in the experiment with TK-10 renal and 36.8 µM with HT29 colon.
As for `N=c1oc2ccc(Cl)cc2cc1C(=O)NC1CCCCC1`, the TGI with M14 melanoma was more than 100 µM; in the experiment on UACC-62 melanoma, more than 100 µM; in the experiment with OVCAR-3 ovarian it was more than 100 µM; in the experiment with HCC-2998 colon, 89.1 µM; with NCI-H226 lung it was more than 100 µM; in the experiment on HL-60(TB) leukemia, more than 100 µM. The TGI in the experiment on OVCAR-5 ovarian, in the experiment with SK-MEL-5 melanoma and in the experiment with HT29 colon was more than 100 µM each time.
In the case of `CC(=O)NC1=CC(=O)C=C(Cl)C1=O`, the TGI in the experiment with M14 melanoma is more than 100 µM; in the experiment with UACC-62 melanoma it was more than 100 µM; in the experiment on OVCAR-3 ovarian, more than 100 µM; with HCC-2998 colon, more than 100 µM; in the experiment on NCI-H226 lung it was more than 100 µM; in the experiment on HL-60(TB) leukemia, 45.7 µM. Further, the TGI in the experiment with OVCAR-5 ovarian, with SK-MEL-5 melanoma, with TK-10 renal and in the experiment with HT29 colon was more than 100 µM in each case.
For `NC(=O)N=Nc1c2ccccc2n2[nH]ccc12`, the TGI in the experiment on M14 melanoma was more than 100 µM; with UACC-62 melanoma, more than 100 µM; in the experiment on OVCAR-3 ovarian, more than 100 µM; in the experiment with HCC-2998 colon, more than 100 µM; in the experiment on NCI-H226 lung it was more than 100 µM; in the experiment with HL-60(TB) leukemia it was 58.1 µM. Further, the TGI in the experiment with OVCAR-5 ovarian, in the experiment on SK-MEL-5 melanoma, in the experiment on TK-10 renal and in the experiment on HT29 colon was more than 100 µM throughout.
Consider `COC1=CC(=O)C2C(C1=O)[C@@H]1c3ccccc3OC[C@H]21` (stereo partly drawn), for which the TGI with M14 melanoma, in the experiment with OVCAR-3 ovarian, in the experiment with HCC-2998 colon, with NCI-H226 lung, in the experiment on HL-60(TB) leukemia and in the experiment on OVCAR-5 ovarian was more than 100 µM throughout. Moreover, the TGI with SK-MEL-5 melanoma, in the experiment with TK-10 renal and in the experiment on HT29 colon was more than 100 µM each time.
As for `N#C/C=C\c1ccc(-c2cc(C(F)(F)F)cc(C(F)(F)F)c2)o1`, the TGI in the experiment with M14 melanoma was more than 100 µM; in the experiment with UACC-62 melanoma, 62.8 µM; with OVCAR-3 ovarian it was more than 100 µM; in the experiment with HCC-2998 colon, more than 100 µM; in the experiment on NCI-H226 lung, more than 100 µM; in the experiment on HL-60(TB) leukemia, 41.4 µM. Moreover, the TGI in the experiment with OVCAR-5 ovarian is more than 100 µM; with SK-MEL-5 melanoma, 43.1 µM; in the experiment with HT29 colon, more than 100 µM.
Regarding `CC(C)(C)c1cc2c(O)c(c1)COCc1cc(C(C)(C)C)cc(c1O)COCc1cc(C(C)(C)C)cc(c1O)COC2`, the TGI in the experiment on M14 melanoma, in the experiment on UACC-62 melanoma, with OVCAR-3 ovarian, in the experiment with HCC-2998 colon, in the experiment on NCI-H226 lung and in the experiment on HL-60(TB) leukemia was more than 100 µM in each case. In addition, the TGI in the experiment with OVCAR-5 ovarian, in the experiment on SK-MEL-5 melanoma and in the experiment on TK-10 renal was more than 100 µM each time.
